One block for each compound: values may come before it.
Molecular target: T1, GATA4–NKX2-5 transcriptional synergy (Mus musculus, UniProt P42582+Q08369)
T1 construct: expressed in transfected cells; host or cells: COS-1
Assay: GATA4–NKX2-5 transcriptional synergy luciferase reporter assay (3xNKE reporter, COS-1 cells)
Type: cell-based
Method: To screen compounds for the GATA4–NKX2-5 interaction, we have developed a luciferase reporter assay based on their property to activate gene transcription synergistically through the NKX2-5 binding site on DNA.[28] In this assay, we transfected mammalian COS-1 cells with protein expression vectors for GATA4 and NKX2-5 proteins together with artificial luciferase reporter vector containing three high affinity binding sites for NKX2-5 (NKE). […] All 257 compounds were tested in two concentrations, 3 and 10 μM. Compounds either inhibited, enhanced, or had no effect on the GATA4–NKX2-5 transcriptional synergy. To investigate the selectivity of the active compounds, we tested their effects on NKX2-5 transcriptional activity by using the same luciferase reporter vector as in transcriptional synergy assay with three NKE sites (Figure 3B). Furthermore, we used GATA luciferase reporter assay to examine if compounds have an effect on GATA4 transcriptional activity. In this assay, we cotransfected the cells with a GATA4 protein expression vector and a reporter vector with tandem GATA4 binding sites (Figure 3C). Previously we have reported that compound 1 inhibited the GATA4–NKX2-5 transcriptional synergy at micromolar concentrations (IC50 = 3 μM).[29]
The plasmids expressing mouse GATA4 protein, pMT2-GATA4, and empty pMT2 were gifts from D. B. Wilson (Department of Pediatrics, St. Louis Children’s Hospital, St. Louis, MO).[44] The plasmids expressing mouse NKX2-5 protein, pMT2-NKX2-5, have been described earlier.[28] The luciferase reporter plasmid used in GATA4–NKX2-5 transcriptional synergy assay and NKX transcriptional assay, pGL3-3xHA, contains three high affinity binding sites for NKX2-5.[28] The luciferase reporter plasmid used in GATA transcriptional assay, NP-112, contains tandem GATA-sites and minimal promoter of rat brain natriuretic peptide (BNP) gene.[45] The pGL3-BNP luciferase reporter containing −534/+4 bp rat BNP proximal promoter described previously was used in hypertrophy assay.[46]
The primary screening assay of compounds’ effect on GATA4–NKX2-5 transcriptional synergy and COS-1 cell culturing has been described earlier.[33] […] (Kinnunen et al., unpublished observation). Briefly, COS-1 cells were seeded at 14 000 cells/well in Isoplate-96 microplates (PerkinElmer, Turku, Finland) and grown overnight. The cells were transfected with the luciferase reporter plasmid pGL3-3xHA 100 ng/well and equal amounts of expression plasmids pMT2-GATA4 and pMT2-NKX2-5 total 50 ng/well. To verify the synergistic effect, the cells were transfected with pMT2-GATA4 or pMT2-NKX2-5 25 ng/well, and the total DNA concentration was adjusted to 50 ng/well with empty pMT2 plasmid. In NKX2-5 and GATA4 luciferase reporter assays, the cells were transfected with reporter plasmid pGL3-3xHA or NP-112 (100 ng/well) and expression plasmid pMT2-NKX2-5 or pMT2-GATA4 (25 ng/well). The ratio of DNA/transfection reagent (Fugene 6, Promega) was 1:3 in all assays. The transfections were performed in serum and antibiotics free media for 6 h. The cells were treated with compounds or vehicle (0.1% DMSO) for 24 h, and the luminescence was measured using neolite Reporter Gene Assay System (PerkinElmer, Turku, Finland) and Victor2 plate reader (PerkinElmer, Turku, Finland).
Raw luciferase data were analyzed in Excel, and clear outliers were removed from triplicates by using the Grubb’s test. Data analysis was performed using R.[49] The luciferase data were first normalized on the basis of the combined mean value of controls. For data visualization and creation of figures, the following R packages were used: ggplot2, cowplot, RColorBrewer, and pheatmap. The heatmaps of the toxicity data were produced with GraphPad Prism 7.00 (GraphPad Software, La Jolla, CA). Statistical significance of luciferase reporter assay data was evaluated by randomized block analysis of variance followed by Dunnett’s post hoc test. […]

[1] = COS-1, compound at 3 µM, luciferase reporter activity, % of control
[2] = COS-1, compound at 10 µM, luciferase reporter activity, % of control
[3] = COS-1, compound 3 µM, luciferase reporter activity relative to control
[4] = COS-1, compound 10 µM, luciferase reporter activity relative to control
[5] = COS-1, 3 µM, luciferase reporter activity, % of control
[6] = COS-1, 10 µM, luciferase reporter activity, % of control
[7] = 3 µM compound, GATA4–NKX2-5 transcriptional synergy reporter, COS-1 cells
[8] = 10 µM compound, GATA4–NKX2-5 transcriptional synergy reporter, COS-1 cells

T1 sequence (Q08369 whole entry): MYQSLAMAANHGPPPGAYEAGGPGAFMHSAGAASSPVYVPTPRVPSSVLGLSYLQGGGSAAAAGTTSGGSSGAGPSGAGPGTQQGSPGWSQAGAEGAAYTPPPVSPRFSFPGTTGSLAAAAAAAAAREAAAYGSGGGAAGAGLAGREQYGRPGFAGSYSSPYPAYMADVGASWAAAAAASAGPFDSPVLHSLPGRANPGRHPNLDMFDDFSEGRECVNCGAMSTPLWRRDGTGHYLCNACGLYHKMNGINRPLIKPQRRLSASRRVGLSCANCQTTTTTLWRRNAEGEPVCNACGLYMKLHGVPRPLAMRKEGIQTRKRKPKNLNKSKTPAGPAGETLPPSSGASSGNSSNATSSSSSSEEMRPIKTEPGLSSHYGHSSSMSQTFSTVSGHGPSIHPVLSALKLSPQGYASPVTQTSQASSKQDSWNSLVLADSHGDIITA
T1 sequence (P42582 whole entry): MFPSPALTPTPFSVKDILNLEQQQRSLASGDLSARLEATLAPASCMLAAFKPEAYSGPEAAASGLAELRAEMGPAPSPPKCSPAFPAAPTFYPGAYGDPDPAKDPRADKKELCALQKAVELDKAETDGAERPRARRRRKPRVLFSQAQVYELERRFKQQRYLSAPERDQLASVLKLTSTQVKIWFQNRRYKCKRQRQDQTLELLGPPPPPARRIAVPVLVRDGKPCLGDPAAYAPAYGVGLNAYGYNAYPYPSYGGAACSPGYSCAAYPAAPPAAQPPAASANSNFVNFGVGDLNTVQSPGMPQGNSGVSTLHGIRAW

SMILES: Cc1onc(-c2ccccc2)c1C(=O)N(N)S(=O)(=O)c1ccccc1 [SI27]
activity at 3 µM [1]: 106%
activity at 10 µM [2]: 113%

SMILES: CCN(CC)c1ccc(N(CCC2OCCO2)C(=O)c2c(-c3cccc([N+](=O)[O-])c3)noc2C)cc1 [SI29]
activity at 3 µM [3]: 82.9%
activity at 10 µM [4]: 82.5%

SMILES: CCN(CC)c1ccc(N(CCOC)C(=O)c2c(-c3cccc([N+](=O)[O-])c3)noc2C)cc1 [SI30]
activity at 3 µM [3]: 74.9%
activity at 10 µM [4]: 86%

SMILES: Cc1onc(-c2ccccc2)c1C(=O)Nc1ccc2c(c1)C(=O)CC(C)(C)O2 [SI39]
activity at 3 µM [7]: 123%
activity at 10 µM [8]: 106%

SMILES: Cc1onc(-c2ccccc2)c1CNc1ccc2oc(-c3ccccc3)cc(=O)c2c1 [SI40]
activity at 3 µM [7]: 94.8%
activity at 10 µM [8]: 99.6%

SMILES: CCN(CC)c1ccc(NCc2ccncc2)cc1 [SI41]
activity at 3 µM [3]: 110%
activity at 10 µM [4]: 100%

SMILES: Cc1onc(-c2ccccc2)c1/N=C/c1ccc(C(C)N(C)C)cc1 (centres unmarked) [SI45]
activity at 3 µM [5]: 88.4%
activity at 10 µM [6]: 98.2%

SMILES: CN(C)c1ccc(/C=N/c2c(-c3ccccc3)nc3ncccn23)cc1 [SI46]
activity at 3 µM [1]: 98.9%
activity at 10 µM [2]: 102%

SMILES: CCC(=O)c1ccc(OCc2c(C)noc2-c2ccccc2)cc1 [SI47]
activity at 3 µM [3]: 89.3%
activity at 10 µM [4]: 95.3%

SMILES: CCc1noc(C)c1C(=O)Nc1ccc2oc(-c3ccccc3)cc(=O)c2c1 [SI50]
activity at 3 µM [7]: 91.4%
activity at 10 µM [8]: 97.4%

SMILES: Cc1onc(-c2ccccc2Cl)c1C(=O)Nc1ccc2oc(-c3ccccc3)cc(=O)c2c1 [SI51]
activity at 3 µM [7]: 96.2%
activity at 10 µM [8]: 75.2%

SMILES: Cc1cc(NC(=O)c2c(-c3cccc([N+](=O)[O-])c3)noc2C)ccc1C(C)C [SI52]
activity at 3 µM [1]: 93.1%
activity at 10 µM [2]: 91%

SMILES: CCN(CC)c1ccc(NC(=S)c2c(-c3c(Cl)cccc3Cl)noc2C)cc1 [SI53]
activity at 3 µM [1]: 81.2%
activity at 10 µM [2]: 70.1%

SMILES: CCN(CC)c1ccc(NC(=O)c2c(-c3ccccc3)nnn2CCC2OCCO2)cc1 [SI58]
activity at 3 µM [3]: 78.8%
activity at 10 µM [4]: 65%

Results, then the compound that gave them:

activity at 3 µM [5]: 66.7%
activity at 10 µM [6]: 78.2%
SMILES: Cc1onc(-c2ccccc2)c1NC(=O)CCCCCBr [SI31]

activity at 3 µM [5]: 110%
activity at 10 µM [6]: 96.2%
SMILES: COc1ccc(C(=O)Nc2c(-c3ccccc3)noc2C)cc1 [SI32]

activity at 3 µM [1]: 95.3%
activity at 10 µM [2]: 112%
SMILES: Cc1onc(-c2ccccc2)c1NC(=O)c1ccc(CN(C)C)cc1 [SI33]

activity at 3 µM [5]: 97.8%
activity at 10 µM [6]: 77.6%
SMILES: CCCCCc1ccc(C(=O)Nc2c(-c3ccccc3)noc2C)cc1 [SI34]

activity at 3 µM [3]: 89.2%
activity at 10 µM [4]: 75.8%
SMILES: CCCCCc1ccc(C(=S)Nc2c(-c3ccccc3)noc2C)cc1 [SI35]

activity at 3 µM [1]: 87%
activity at 10 µM [2]: 117%
SMILES: CCN(CCO)c1ccc(N(C)C(=O)c2c(-c3ccccc3)noc2C)cc1 [SI36]

activity at 3 µM [1]: 108%
activity at 10 µM [2]: 87.4%
SMILES: Cc1onc(-c2ccccc2)c1C(=S)Nc1ccc(OCc2ccccc2)cc1 [SI37]

activity at 3 µM [1]: 72.7%
activity at 10 µM [2]: 112%
SMILES: CCN(c1ccc(NC(=S)c2c(-c3ccccc3)noc2C)cc1)C(C)C [SI38]

activity at 3 µM [5]: 82.9%
activity at 10 µM [6]: 118%
SMILES: Cc1onc(-c2ccccc2)c1N=Cc1ccc(N(CCO)CCO)cc1 [SI42]

activity at 3 µM (COS-1, compound 3 µM, luciferase reporter activity, spread in separate STDEV column): 109%
activity at 10 µM (COS-1, compound 10 µM, luciferase reporter activity, spread in separate STDEV column): 99.7%
SMILES: Cc1onc(-c2ccccc2)c1NCc1ccc(N(CCO)CCO)cc1 [SI43]

activity at 3 µM [5]: 92.6%
activity at 10 µM [6]: 82.9%
SMILES: Cc1onc(-c2ccccc2)c1COCc1ccc(OC(F)(F)F)cc1 [SI49]

Reference: article PMC7076710, “Synthesis, Identification, and Structure–Activity Relationship Analysis of GATA4 and NKX2-5 Protein–Protein Interaction Modulators” (Journal of Medicinal Chemistry, 2019)
